What all share (type): physicochemical
Data set [1] in a line: Moisture % K.F. of the stability samples. The conditions noted are these: sample used in the stability test. On the procedure: In the following Tables 2-13, the percentage values are repotted which were obtained in the stability tests carried out on the products of examples 1-6. The stability tests were carried out in thermostated heaters at 40° C. and 75% R.H (tables 2-7) as well as 25° C. and 60% R.H. (tables 8-13), preserving the samples in heat-sealed aluminium/aluminium bags according to the following criteria: […]

Data set [2] in a line: Stability test in thermostated heaters at 40° C. and 75% R.H., active ingredient %. The conditions noted are these: heat-sealed aluminium/aluminium bags. The procedure: (§1) In the following Tables 2-13, the percentage values are repotted which were obtained in the stability tests carried out on the products of examples 1-6. The stability tests were carried out in thermostated heaters at 40° C. and 75% R.H (tables 2-7) as well as 25° C. and 60% R.H. (tables 8-13), preserving the samples in heat-sealed aluminium/aluminium bags according to the following criteria: the active ingredient % was determined for every sampling point taken under consideration.

A short description of data set [3]: Degradation of the active stereoisomer S,S at 40° C. and 75% R.H. The procedure:
(§2) In the following Tables 14-25, the percentage values are reported of the degradation of the active stereoisomer S,S calculated at 40° C. and 75% R.H. (Tables 14-19) and at 25° C. and 65% R.H.

Data set [4] in a line: Degradation of the active stereoisomer S,S at 25° C. and 65% R.H. The procedure: as §2
Data set [5] is described as follows: Stability test in thermostated heaters at 25° C. and 60% R.H., active ingredient %. Particulars: heat-sealed aluminium/aluminium bags. The procedure:
as §1

Structures are written as SMILES.

Take `C[S+](CCC(N)C(=O)[O-])C[C@H]1O[C@@H](n2cnc3c(N)ncnc32)[C@H](O)[C@@H]1O.C[S+](CCC(N)C(=O)[O-])C[C@H]1O[C@@H](n2cnc3c(N)ncnc32)[C@H](O)[C@@H]1O.O=S(=O)(O)O.[Cl-].[Cl-].[Mg+2]` (stereo partly shown) [SAMe•0.5H2SO4•0.5MgCl2]: the “Moisture % K.F.” value in data set [1] amounted to 0.61%. For the same compound, the “stability test percentage value (active ingredient %), 30 days” value in data set [2] is 0.36%; in data set [5] it was 0.12%. Also, the “stability test percentage value (active ingredient %), 60 days” value in data set [2] turned out to be 0.70%. Further, the results for the “stability test percentage value (active ingredient %), 90 days” value in data set [2] and in data set [5] were 1.16% and 0.25%, respectively. Further, the “stability test percentage value (active ingredient %), 120 days” value in data set [2] came to 1.66%. The results for the “stability test percentage value (active ingredient %), 180 days” value in data set [2] and in data set [5] were 2.45% and 0.35%, respectively. The “percentage of active S,S stereoisomer remaining” value worked out at 89.8% in data set [3] (30 days); 86.8% in data set [3] (60 days); 83.6% in data set [3] (90 days); 80.6% in data set [3] (120 days); 77.6% in data set [3] (180 days); 98.2% in data set [3] (T = 0). Besides, the “percentage of the active S,S stereoisomer remaining” value in data set [4] (30 days) is recorded as 97.8%; in data set [4] (90 days), 96.8%; in data set [4] (180 days), 93.6%; in data set [4] (360 days), 90.6%; in data set [4] (720 days) it was 87.6%; in data set [4] (T = 0), 98.2%. Moreover, in data set [5], the “stability test percentage value (active ingredient %), 360 days” value is recorded as 0.57%. Moreover, the “stability test percentage value (active ingredient %), 720 days” value in data set [5] amounted to 0.79%.

For the compound `C[S+](CCC(N)C(=O)[O-])C[C@H]1O[C@@H](n2cnc3c(N)ncnc32)[C@H](O)[C@@H]1O.O=S(=O)(O)O.O=S(=O)(O)O.[Ca+2].[Cl-].[Cl-]` (stereo partly shown) [SAMe•2.0H2SO4•1.0CaCl2], the “Moisture % K.F.” value in data set [1] amounted to 0.35%. Moreover, the “stability test percentage value (active ingredient %), 30 days” value in data set [2] was 0.17%; in data set [5] it was 0.16%. Moreover, in data set [2], the “stability test percentage value (active ingredient %), 60 days” value was 0.42%. In addition, the “stability test percentage value (active ingredient %), 90 days” value is reported as 0.92% in data set [2] and 0.29% in data set [5]. For the same compound, in data set [2], the “stability test percentage value (active ingredient %), 120 days” value came out at 1.52%. The figures for the “stability test percentage value (active ingredient %), 180 days” value in data set [2] and in data set [5] were 2.70% and 0.35%, respectively. Further, the “percentage of active S,S stereoisomer remaining” value in data set [3] (30 days) is 89.3%; in data set [3] (60 days), 85.3%; in data set [3] (90 days), 83.3%; in data set [3] (120 days) it was 79.3%; in data set [3] (180 days) it was 75.3%; in data set [3] (T = 0), 97.2%. In addition, the “percentage of the active S,S stereoisomer remaining” value in data set [4] (30 days) is 95.9%; in data set [4] (90 days), 94.9%; in data set [4] (180 days) it was 93.8%; in data set [4] (360 days), 91.2%; in data set [4] (720 days), 87.8%; in data set [4] (T = 0), 97.2%. The “stability test percentage value (active ingredient %), 360 days” value in data set [5] was determined as 0.68%. Also, in data set [5], the “stability test percentage value (active ingredient %), 720 days” value amounted to 0.82%.

For the origin of these results see patent publication US8258115B2, “Stable salts of S-adenosylmethionine and process for the preparation thereof” (priority 2007, dated 2012).
